The nature of the data set: in vitro. As to conditions: human, hela cells, % viability.

Each structure is given as a SMILES string.

As a reminder, the viability is a read-out of living cells in per cent, often relative to untreated cells. Turning to `O=C(CSc1ncnc2ccccc12)Nc1nc2ccccc2s1` [CBK287510], the viability at 28.5 h, 10 µM came to 85.5%. The same measure, in the same setting: for `Cc1ccc(-c2ncc3c(=O)[nH]c(=O)n(C)c3n2)cc1` [CBK288553] the value was 89.6%; for `CC(C)NS(=O)(=O)c1ccc(OCC(=O)Nc2ccc3c(c2)OCCO3)cc1` [CBK265915], 106%. Same read-out and setting: for `CSCc1nnc(SCc2ccccc2Oc2ccccc2)o1` [CBK296743] the value was 99.2%; for `Cc1nc(S(=O)(=O)Nc2ccc3[nH]ccc3c2)cn1C` [CBK156800], 68.3%. On the same count and under the same terms, next, `CCc1cc(=O)oc2cc(OC(=O)c3ccco3)ccc12` [CBK264657]: 84.8%. As to `O=C(NNC1=C(C(=O)C(F)(F)F)CCC1)c1cccnc1` [CBK262459], the viability at 28.5 h, 10 µM was 89.1%.

On to `CC(C)(C)C(C#N)C(Oc1ccc(Cl)cc1)n1cncn1` (stereo not shown) [CBK023570], for which the viability at 28.5 h, 10 µM worked out at 90.3%. On the same count and under the same terms, next, `CC(=O)Nc1ccc(S(=O)(=O)N2CCN(c3cc4[nH]c(=O)[nH]c4cc3[N+](=O)[O-])CC2)cc1` [CBK267013]: 97.7%; `COc1cc(Cl)cc(/C=N\NC(=O)C2C(=O)NCC2c2ccccc2)c1O` (stereo not shown) [CBK262825]: 91.8%; `O=C(O)COc1ccc(NC(=O)c2ccc3c(c2)C(=O)N(C2CCCCC2)C3=O)cc1` [CBK266009]: 92.1%.

As for `Cc1ccc(Cc2cnc(NC(=O)C3CCOCC3)s2)cc1F` [CBK306130], the viability at 28.5 h, 10 µM is 77.5%. Take `Cc1ccc(-n2c(SCC(N)=O)nnc2-c2ccccc2O)c(C)c1` [CBK269673]: the viability at 28.5 h, 10 µM came out at 89.6%.

Regarding `O=C(O)COc1ccc(/C=N/n2cnnc2)cc1Cl` [CBK263902], the viability at 28.5 h, 10 µM is 99.3%. Still for that read-out and setting: next, `COC(=O)Nc1ncc(CN2CCc3ccccc3C2)s1` [CBK268376]: 97.5%.

On to `Cc1ccc(S(=O)(=O)N2CCOCC2)cc1C(=O)Oc1cccc2cccnc12` [CBK269726], for which the viability at 28.5 h, 10 µM stood at 98%. As to `CSc1nsc(SCC(=O)N2CCN(C(c3ccccc3)c3ccccc3)CC2)n1` [CBK268071], the viability at 28.5 h, 10 µM was 89.2%. The same measure, in the same setting: for `Cc1ccc(-c2nccnc2OCc2ccc3c(c2)OCO3)c(C)c1` [CBK106982] the value was 93.1%; for `CC(=O)Nc1cccc(-c2nccnc2NS(=O)(=O)c2cccs2)c1` [CBK050760], 92.7%.

For the compound `Cc1ccc(CNC(=O)c2ccc(-n3ccnc3)c(-n3cccc3)c2)o1` [CBK284812], the viability at 28.5 h, 10 µM was found to be 99.2%. Turning to `COCCCN(Cc1ccccn1)Cc1cccc(F)c1F` [CBK282947], the viability at 28.5 h, 10 µM worked out at 84.5%. The same measure, in the same setting: next, `O=C(CSCc1ccc(Cl)cc1Cl)Nc1nccs1` [CBK131921]: 103%; `Cc1c(Cl)cccc1S(=O)(=O)Nc1nc(C(C)Sc2nccn2C)ns1` (stereo not shown) [CBK200052]: 88.5%; `O=C(O)c1ccc(CNCCN2CCOCC2)cc1` [CBK287223]: 101%. Still for that read-out and setting: for `COc1cc(OC)nc(NC(=O)CN2CCN(c3ccc(F)cc3)CC2)n1` [CBK267259] the value was 96.5%.

Take `Cc1cc(NC(=O)CC2CC2)c2ccccc2n1` [CBK116257]: the viability at 28.5 h, 10 µM is 98.6%. Same read-out and setting: next, `Cc1noc(C)c1C(=O)N1CCCCCC1c1ccn(C)n1` (stereo not shown) [CBK284917]: 90.8%; `CNC(=O)CSc1nnc(COc2cccc3ccccc23)n1-c1ccccc1` [CBK266043]: 102%. On the same count and under the same terms, for `O=C1NCC2(CCN(C(=O)c3cccs3)CC2)Oc2ccccc21` [CBK282917] the value was 100%.

Regarding `CCCNC(=O)Cn1cnc2sc(C(=O)Nc3ccc(OCC)cc3)c(C)c2c1=O` [CBK071920], the viability at 28.5 h, 10 µM was found to be 91.2%.

In the case of `O=C(c1cccs1)n1nc(NCc2ccccc2)nc1NCc1ccccc1` [CBK269149], the viability at 28.5 h, 10 µM is 107%. Same read-out and setting: next, `COc1cccc(C2(NC(=O)CCn3nc(C)cc3C)CCCC2)c1` [CBK283749]: 90.7%; `CCn1cncc1C(=O)NCC1(c2ccccc2F)CCOCC1` [CBK281555]: 90.9%; `CCC(C)NC(=O)Cn1cccc2cc(C3CCCNC3)nc1-2` (stereo not shown) [CBK285087]: 98.2%. The same measure, in the same setting: for `O=C1Oc2nc3ccccc3cc2CN1C1CC1` [CBK282870] the value was 87.9%; for `Nn1c(SCCCCSc2nnc(C(F)(F)F)n2N)nnc1C(F)(F)F` [CBK267946], 98.8%; for `CC(=O)Nc1ccc(S(=O)(=O)Nc2ccnc(N3CCNCC3)n2)cc1` [CBK000363C], 92.5%. As for `O=C(Cn1c(C2CCNCC2)cc2cccnc21)N1CCCC1` [CBK285013], the viability at 28.5 h, 10 µM came out at 96.3%.

Take `CC(C)[C@H](NC(=O)c1cc2cc(Cl)ccc2n1C)C(=O)N1CCC(C(=O)O)CC1` [CBK286771]: the viability at 28.5 h, 10 µM was found to be 107%. Still for that read-out and setting: next, `COC(=O)c1c(NC(=O)Cn2ccc([N+](=O)[O-])n2)sc2c1CCCC2` [CBK268960]: 116%. The same measure, in the same setting: next, `COc1cc(CCN2C(=O)c3cccc4cccc(c34)C2=O)c(S(=O)(=O)N2CCCC2)cc1OC` [CBK264947]: 102%.

On to `O=C(O)c1cccc(-c2ccc(Nc3cccc(NC(=O)c4ccncc4)c3)nc2)c1` [CBK037776], for which the viability at 28.5 h, 10 µM was 101%.

Turning to `CCN(CC)C1=NC(=S)N(C)C(c2ccc(OC)cc2)S1` (stereo not shown) [CBK006804], the viability at 28.5 h, 10 µM came out at 99.3%. On the same count and under the same terms, for `Cc1ccc2c(c1)cc(C(=O)N(C)CC1(C)COC1)n2C` [CBK281723] the value was 86.4%; for `COC(=O)c1cc(NC(=O)c2cc(-c3ccc(C)o3)nc3ccccc23)cc(C(=O)OC)c1` [CBK265400], 86.3%.

For the compound `CC1(C)O[C@@H]2O[C@@H](C(O)CNC(=O)c3ccccc3)[C@@H](NC(=O)c3ccccc3)[C@@H]2O1` (stereo partly shown) [CBK008727], the viability at 28.5 h, 10 µM is 101%. For `Nn1c(COc2ccccc2)nnc1SCC(=O)c1ccc2c(c1)CCCC2` [CBK268466], the viability at 28.5 h, 10 µM was 100%.

Turning to `C=CCSC1=N/C(=C\c2ccc(C(=O)O)cc2)C(=O)S1` [CBK265057], the viability at 28.5 h, 10 µM was 95.7%. Same read-out and setting: for `CS(=O)(=O)c1ccc(-c2cnc(N)c(NCC3CCOCC3)n2)cc1` [CBK063849] the value was 103%; for `O=C(COc1ccc(Br)cc1)Nc1ccc(CN2CCCCC2)cc1` [CBK266181], 99.5%.

Consider `O=C(c1cccc(CN2CCN(c3nc(-c4ccccc4)ns3)CC2)c1)N1CCC(O)CC1` [CBK074709], for which the viability at 28.5 h, 10 µM was found to be 110%. The same measure, in the same setting: for `Cc1ccc(-c2ccccc2CC2(C(=O)Nc3cccc(C(N)=O)c3)CCOCC2)c(C)c1` [CBK286423] the value was 92.7%. For the compound `O=[N+]([O-])c1ccc(Cl)cc1CN1CCN(c2ccccc2)CC1` [CBK261556], the viability at 28.5 h, 10 µM (bulk resorufin, single well) stood at 89.3%.

Take `CC(=O)N[C@H]1CC[C@]2(C)CCC([C@H](C)C(=O)N3CCCCC3)[C@H](O)[C@H]2[C@@H]1C` (stereo partly shown) [CBK289439]: the viability at 28.5 h, 10 µM came out at 89.4%. The same measure, in the same setting: for `Cn1c(CCC(=O)NCC(C)(C)N2CCCCC2)nc2ccccc21` [CBK281877] the value was 92.9%; for `CC(CC(=O)C1C(C)C=CCC1(C)C)NNC(=O)c1ccccc1O` (stereo not shown) [CBK262980], 91.6%.

Consider `CC(=O)N1C[C@H](c2cccc(C)c2)[C@H]2CN(C3CCCC3)CC[C@H]21` [CBK283369], for which the viability at 28.5 h, 10 µM came out at 88.7%. The same measure, in the same setting: next, `CC(=O)Nc1ccc(C2=NC3SC(c4ccc(NC(C)=O)cc4)=NC3S2)cc1` (stereo not shown) [CBK019799]: 103%.

As to `O=S(=O)(N[C@H]1CO[C@H]2[C@@H]1OC[C@@H]2n1cc(-c2ccccn2)nn1)c1cccs1` [CBK289508], the viability at 28.5 h, 10 µM was 88.7%.

With `CC(=O)Nc1cccc(-n2nnnc2SCCCc2nc3ccccc3o2)c1` [CBK298317], the viability at 28.5 h, 10 µM was 85.5%.

As to `COc1cccc(/C=C(/C#N)c2ccc(F)cc2)c1OCc1cccc(C(=O)O)c1` [CBK267993], the viability at 28.5 h, 10 µM turned out to be 102%. As for `COCCN(Cc1cc2ccc(C)cc2nc1O)C(=O)c1cccs1` [CBK269324], the viability at 28.5 h, 10 µM worked out at 100%. Still for that read-out and setting: for `NC(=O)COc1ccccc1OCC(N)=O` [CBK261032] the value was 87.5%; for `Cc1ccc(-c2nc(Nc3ccc(Br)cc3)sc2CC(=O)O)cc1` [CBK264251], 101%. On the same count and under the same terms, next, `Cn1c(=O)c2c(nc(CN3CCOCC3)n2CC(=O)c2ccccc2)n(C)c1=O` [CBK269195]: 93.2%. Same read-out and setting: for `COc1ccc([C@@]23CC[C@@H](NC(=O)Cc4ccc(Cl)cc4)CC2N(C)CC3)cc1OC` (stereo partly shown) [CBK074971T] the value was 96%; for `COc1ccccc1-c1nccnc1N(C)Cc1ccccc1` [CBK036774], 102%. For `CC1Cc2ccccc2N1CCNC(=O)Cc1cn2ccsc2n1` (stereo not shown) [CBK306499], the viability at 28.5 h, 10 µM came to 87.6%. The same measure, in the same setting: for `O=C(CSc1nnc(-c2ccccc2)n1-c1ccccc1)N/N=C/c1cccc2cccnc12` [CBK262863] the value was 91%; for `COc1ccc(S(=O)(=O)Nc2ccc(C(=O)O)cc2)cc1OC` [CBK034048], 96.2%. Same read-out and setting: next, `CN(Cc1ccccc1)Cc1ccccc1O` [CBK261879]: 92.4%; `Cc1[nH]c(=O)[nH]c1C(=O)CCCCC(=O)O` [CBK263197]: 94%.

Take `COC(=O)c1c(NC(=O)CSc2nc[nH]n2)sc2c1CCCC2` [CBK267222]: the viability at 28.5 h, 10 µM stood at 81.6%. Consider `C(=C\c1cccc(Nc2ccc(Oc3ccccc3)cc2)n1)/c1ccccc1` [CBK037614], for which the viability at 28.5 h, 10 µM was 94.1%. On to `CCNC(=O)C1(Cc2ccc(-c3ccncc3)cc2)CCN(C(=O)CC2CCCCC2)CC1` [CBK285785], for which the viability at 28.5 h, 10 µM worked out at 89.8%. Same read-out and setting: next, `Cc1ccc(C(=O)N2CCC(C(=O)NC(c3ccccc3)c3ccc4ccccc4n3)CC2)cc1` (stereo not shown) [CBK059663]: 87.9%; `COC(=O)c1c(NC(=O)c2ccccc2)csc1C` [CBK026684]: 90.3%; `CCC(C(=O)Nc1nccs1)N(C)Cc1c(C)nn(C(C)C)c1C` (stereo not shown) [CBK307402]: 103%. On the same count and under the same terms, next, `COC(=O)c1ccccc1NC(=O)CC1Sc2ccccc2NC1=O` (stereo not shown) [CBK269400]: 90.2%.
